From US10287269B2, “Pyrazolyl pyrimidinone compounds as PDE2 inhibitors” (Merck Sharp & Dohme Corp., priority 2015, dated 2019) come the findings set out here.

For the test, the target named is T1, human PDE2A1 (Homo sapiens, UniProt O00408).
T1 construct: GST; purchased BPS Bioscience (San Diego, Calif.) 60020; host or cells: insect cells
The test can be described thus: PDE2 IMAP FP inhibition assay, human enzyme (PDE selectivity panel format). Type of test: biochemical. The procedure, abridged:
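GST-tagged human PDE2A1 from insect cells, run at room temperature in 10 mM Tris pH 7.2, 10 mM MgCl2, 1 mM DTT with 50 nM FAM-cAMP plus 1000 nM cGMP for 60 min. IMAP fluorescence polarization read-out; apparent Ki derived using apparent KM 10,000 nM.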

Setting [1] is: Lab B, read-out: Human PDE2 Ki (nM) Lab B.
Where [2] appears, read: Lab A, read-out: Human PDE2 Ki (nM) Lab A.

Read-outs that look alike come from different tables or passages of the source.

Usually Ki stands for the equilibrium dissociation constant of an inhibitor or competing ligand from its target.

T1 sequence (O00408 1-920 isoform O00408-2): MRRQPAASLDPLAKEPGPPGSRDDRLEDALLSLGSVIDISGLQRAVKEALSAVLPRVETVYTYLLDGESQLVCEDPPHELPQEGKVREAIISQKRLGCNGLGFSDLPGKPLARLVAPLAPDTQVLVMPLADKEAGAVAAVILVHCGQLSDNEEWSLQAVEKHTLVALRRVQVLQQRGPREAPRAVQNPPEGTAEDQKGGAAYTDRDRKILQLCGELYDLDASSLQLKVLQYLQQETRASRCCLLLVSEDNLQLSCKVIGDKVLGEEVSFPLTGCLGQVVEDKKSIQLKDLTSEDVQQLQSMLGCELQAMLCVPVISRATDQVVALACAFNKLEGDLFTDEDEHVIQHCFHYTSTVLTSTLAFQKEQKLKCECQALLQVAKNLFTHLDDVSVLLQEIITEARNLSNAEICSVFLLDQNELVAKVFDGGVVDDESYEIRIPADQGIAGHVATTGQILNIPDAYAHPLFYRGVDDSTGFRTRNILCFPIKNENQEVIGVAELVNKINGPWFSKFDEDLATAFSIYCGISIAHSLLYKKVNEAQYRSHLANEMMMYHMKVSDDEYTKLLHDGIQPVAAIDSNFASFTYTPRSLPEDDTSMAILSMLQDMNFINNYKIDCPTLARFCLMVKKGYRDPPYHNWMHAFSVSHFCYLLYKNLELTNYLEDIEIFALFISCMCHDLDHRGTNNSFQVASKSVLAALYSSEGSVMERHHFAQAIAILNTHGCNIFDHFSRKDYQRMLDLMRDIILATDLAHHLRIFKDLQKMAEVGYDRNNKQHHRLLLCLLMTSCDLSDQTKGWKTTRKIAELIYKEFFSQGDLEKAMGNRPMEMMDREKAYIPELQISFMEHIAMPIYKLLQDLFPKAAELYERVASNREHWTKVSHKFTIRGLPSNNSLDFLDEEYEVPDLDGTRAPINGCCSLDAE

Take `CCCC(c1ccc(C(F)(F)F)cc1)n1cc(-c2cc(=O)[nH]c(C)n2)cn1` (stereo not drawn) [Example 154, 2-methyl-6-(1-(1-(4-(trifluoromethyl)phenyl)butyl)-1H-pyrazol-4-yl)pynmidin-4(3H)-one]: under setting [1], the inhibitory constant (Ki) was 265 nM.

In the case of `Cc1nc(-c2cnn(C(C)c3ccc(C(F)(F)F)cc3)c2)cc(=O)[nH]1` (stereo not drawn) [Example 126, 2-methyl-6-(1-(1-(4-(trifluoromethyl)phenyl)ethyl)-1H-pyrazol-4-yl)pyrimidin-4(3H)-one], the Ki under setting [1] was 233 nM.

For the compound `Cc1nc(-n2cc([C@H](C)c3ccc(C(F)(F)F)cc3)cn2)cc(=O)[nH]1` (single isomer, unassigned) [Example 4], the Ki reads like this: under setting [2], 18.2 nM; under setting [1], 14.4 nM. As to `Cc1nc(-n2cc([C@](C)(O)c3ccc(C(F)(F)F)cc3F)cn2)cc(=O)[nH]1` (single isomer, unassigned) [Example 15], under setting [1], the Ki was found to be 11.7 nM.

As to `Cc1nc(-n2cc([C@H](CO)c3ccc(C(F)(F)F)cc3F)cn2)cc(=O)[nH]1` (single isomer, unassigned) [Example 20], the Ki by setting is: under setting [2], 32.3 nM; under setting [1], 16.8 nM. `Cc1nc(-n2cc(C3(C)OCc4cc(C(F)(F)F)ccc43)cn2)cc(=O)[nH]1` (single isomer, unassigned) [Example 27]: under setting [1], the inhibition constant Ki was found to be 66.6 nM. Turning to `COc1cc(Cc2nc(-c3cnn(C(C)c4ccc(C(F)(F)F)cc4F)c3)cc(=O)[nH]2)ccc1F` (single isomer, unassigned) [Example 143, (S)- or (R)-2-(4-fluoro-3-methoxybenzyl)-6-(1-(1-(2-fluoro-4-(trifluoromethyl)phenyl)ethyl)-1H-pyrazol-4-yl)pyrimidin-4(3H)-one], under setting [2], the inhibition constant (Ki) stood at 27.9 nM. Take `Cc1nc(-c2cnn(C(C)c3ccc(C(F)(F)F)cc3F)c2)cc(=O)[nH]1` (single isomer, unassigned) [Example 135, (R)- or (S)-6-(1-(1-(2-fluoro-4-(trifluoromethyl)phenyl)ethyl)-1H-pyrazol-4-yl)-2-methylpyrimidin-4(3H)-one]: the inhibitory constant (Ki) under setting [1] came to 91.9 nM. In the case of `Cc1nc(-c2cnn(C(C)c3ccc(OC(F)(F)F)cc3)c2)cc(=O)[nH]1` (single isomer, unassigned) [Example 127, (R)- or (S)-2-methyl-6-(1-(1-(4-(trifluoromethoxy)phenyl)ethyl)-1H-pyrazol-4-yl)pyrimidin-4(3H)-one], under setting [1], the Ki was 103 nM. `CCc1nc(-c2cnn(C(C)c3ccc(C(F)(F)F)cc3F)c2)cc(=O)[nH]1` (single isomer, unassigned) [Example 85, (R)- or (S)-2-ethyl-6-(1-(1-(2-fluoro-4-(trifluoromethyl)phenyl)ethyl)-1H-pyrazol-4-yl)pyrimidin-4(3H)-one]: under setting [2], the Ki is 10.4 nM. On to `COc1ccc(Cc2nc(-c3cnn(C(C)c4ccc(C(F)(F)F)cc4)c3)cc(=O)[nH]2)cc1OC` (single isomer, unassigned) [Example 61, (S)- or (R)-2-(3,4-dimethoxybenzyl)-6-(1-(1-(4-(trifluoromethyl)phenyl)ethyl)-1H-pyrazol-4-yl)pyrimidin-4(3H)-one], for which the inhibitory constant (Ki) is 2.4 nM under setting [2] and 0.9 nM under setting [1]. Regarding `COc1cc(Cc2nc(-c3cnn(C(C)c4ccc(C(F)(F)F)cc4F)c3)cc(=O)[nH]2)ccc1F` (single isomer, unassigned) [Example 142, (R)- or (S)-2-(4-fluoro-3-methoxybenzyl)-6-(1-(1-(2-fluoro-4-(trifluoromethyl)phenyl)ethyl)-1H-pyrazol-4-yl)pyrimidin-4(3H)-one], the inhibitory constant (Ki) under setting [2] is 3.5 nM. The same measure, in the same setting: the same measure for `CC(c1ccc(C(F)(F)F)cc1F)n1cc(-c2cc(=O)[nH]c(C3CC3)n2)cn1` (stereo not drawn) [Example 10]: 19.5 nM. In the case of `Cc1nc(-n2cc(C3(C)OCc4cc(C(F)(F)F)ccc43)cn2)cc(=O)[nH]1` (single isomer, unassigned) [Example 28], the Ki under setting [1] stood at 72 nM. On the same count and under the same terms, the same measure for `Cc1nc(-c2cnn(Cc3ccc(OC(F)(F)F)cc3)c2)cc(=O)[nH]1` [Example 29, 2-Methyl-6-(1-(4-(trifluoromethoxy)benzyl)-1H-pyrazol-4-yl)pyrimidin-4(3H)-one]: 829 nM; for `Cc1nc(-c2ccn(C(C)c3ccc(C(F)(F)F)cc3)n2)cc(=O)[nH]1` (single isomer, unassigned) [Example 78, (S)- or (R)-2-methyl-6-(1-{(1R)-1-[4-(trifluoromethyl)phenyl]ethyl}-1H-pyrazol-3-yl)pyrimidin-4(3H)-one]: 255 nM. As to `COc1ccc(Cc2nc(-c3cnn(C(C)c4ccc(C(F)(F)F)cc4F)c3)cc(=O)[nH]2)cc1` (single isomer, unassigned) [Example 139, (S)- or (R)-6-(1-(1-(2-fluoro-4-(trifluoromethyl)phenyl)ethyl)-1H-pyrazol-4-yl)-2-(4-methoxybenzyl)pyrimidin-4(3H)-one], the inhibition constant (Ki) runs as follows: under setting [2], 41.6 nM; under setting [1], 24.5 nM. In the same order, the values of `Cc1nc(-c2cnn(C(C)c3ccc(C(F)(F)F)cc3F)c2)cc(=O)[nH]1` (single isomer, unassigned) [Example 136, (S)- or (R)-6-(1-(1-(2-fluoro-4-(trifluoromethyl)phenyl)ethyl)-1H-pyrazol-4-yl)-2-methylpyrimidin-4(3H)-one] are 19.1 nM and 7.6 nM. In the same order, the values of `COc1ccc(Cc2nc(-c3cnn(C(C)c4ccc(C(F)(F)F)cc4F)c3)cc(=O)[nH]2)cc1OC` (single isomer, unassigned) [Example 67] are 0.2 nM and 0.1 nM.

With `Cc1nc(-c2cnn(C(c3ccc(C(F)(F)F)cc3F)C(C)C)c2)cc(=O)[nH]1` (stereo not drawn) [Example 34, 6-(1-(1-(2-fluoro-4-(trifluoromethyl)phenyl)-2-methylpropyl)-1H-pyrazol-4-yl)-2-methylpynmidin-4(3H)-one], the Ki under setting [2] was found to be 44.6 nM. For the compound `COc1ccc(Cc2nc(-c3cnn(C(C)c4ccc(C(F)(F)F)cc4)c3)cc(=O)[nH]2)cc1OC` (single isomer, unassigned) [Example 60, (R)- or (S)-2-(3,4-dimethoxybenzyl)-6-(1-(1-4-(trifluoromethyl)phenyl)ethyl)-1H-pyrazol-4-yl)pyrimidin-4(3H)-one], the inhibitory constant (Ki) under setting [2] turned out to be 3.7 nM and the Ki under setting [1] turned out to be 1.1 nM.

On to `Cc1nc(-n2cc(C(c3ccc(C(F)(F)F)cc3)C(C)C)cn2)cc(=O)[nH]1` (stereo not drawn) [Example 130], for which, under setting [1], the inhibition constant Ki was 87.6 nM. For `Cc1nc(-n2cc(C(C)c3ccc(C(F)(F)F)cc3F)cn2)cc(=O)[nH]1` (single isomer, unassigned) [Example 52, (R)- or (S)-6-(4-(1-(2-fluoro-4-(trifluoromethyl)phenyl)ethyl)-1H-pyrazol-1-yl)-2-methylpyrimidin-4(3H)-one], the Ki is, setting by setting: under setting [2], 12.3 nM; under setting [1], 4.9 nM. Consider `Cc1ccc(C(C)n2cc(-c3cc(=O)[nH]c(C)n3)cn2)c(Cl)c1` (single isomer, unassigned) [Example 148, (R)- or (S)-6-(1-(1-(2-chloro-4-methylphenyl)ethyl)-1H-pyrazol-4-yl)-2-methylpyrimidin-4(3H)-one], for which the Ki under setting [2] is 61 nM. As for `Cc1nc(-n2cc(C(C)c3ccc(C(F)(F)F)cc3F)cn2)cc(=O)[nH]1` (single isomer, unassigned) [Example 53, (S)- or (R)-6-(4-(1-(2-fluoro-4-(trifluoromethyl)phenyl)ethyl)-1H-pyrazol-1-yl)-2-methylpyrimidin-4(3H)-one], the inhibition constant (Ki) under setting [1] amounted to 33.2 nM.
